What was measured:
pigweed, palmer = assay: Test F postemergence; assay type: in vivo, Amaranthus palmeri; settings: scale 0 to 100
Description: Seeds of plant species selected from corn (Zea mays), soybean (Glycine max), velvetleaf (Abutilon theophrasti), lambsquarters (Chenopodium album), wild poinsettia (Euphorbia heterophylla), pigweed, palmer (palmer pigweed, Amaranthus palmeri), common waterhemp (Amaranthus rudis), surinam grass (Brachiaria decumbens), large crabgrass (Digitaria sanguinalis), crabgrass, Brazil (Brazilian crabgrass, Digitaria horizontalis), fall panicum (Panicum dichotomiflorum), giant foxtail (Setaria faberii), green foxtail (Setaria viridis), goosegrass (Eleusine indica), johnsongrass (Sorghum halepense), common ragweed (Ambrosia elation), barnyardgrass (Echinochloa crus-galli), southern sandbur (Cenchrus echinatus), arrowleaf sida (Sida rhombifolia), Italian ryegrass (Lolium multiflorum), dayflower, VA (Virginia (VA) dayflower, Commelina virginica), field bindweed (Convolvulus arvensis), cocklebur (common cocklebur, Xanthium strumarium), morningglory (Ipomoea coccinea), nightshade (eastern black nightshade, Solanum ptycanthum), kochia (Kochia scoparia), yellow nutsedge (Cyperus esculentus), and hairy beggarticks (Bidens pilosa), were planted into a silt loam soil and treated preemergence with test chemicals formulated in a non-phytotoxic solvent mixture which included a surfactant.
At the same time, plants from these crop and weed species and also horseweed (Canada horseweed, Conyza canadensis), smartweed (ladysthumb smartweed, Polygonum persicaria), waterhemp_RES1, (ALS & Triazine resistant common waterhemp, Amaranthus rudis), and waterhemp_RES2, (ALS & HPPD resistant common waterhemp, Amaranthus rudis) were treated with postemergence applications of test chemicals formulated in the same manner. Plants ranged in height from 2 to 18 cm for postemergence treatments (1- to 4-leaf stage). Treated plants and controls were maintained in a greenhouse for 14 to 21 days, after which time all species were compared to controls and visually evaluated. Plant response ratings, summarized in Table F, are based on a scale of 0 to 100 where 0 is no effect and 100 is complete control. A dash (-) response means no test result.

mallow = assay: Test E preemergence; assay type: in vivo, Malva sylvestris; settings: 21 days, scale 0 to 100
Description: (§1) Seeds of plant species selected from bermudagrass (Cynodon dactylon), Surinam grass (Brachiaria decumbens), crabgrass, large (large crabgrass, Digitaria sanguinalis), crabgrass, naked (naked crabgrass, Digitaria nuda), foxtail, green (green foxtail, Setaria viridis), johnsongrass (Sorghum halepense), kochia (Kochia scoparia), morningglory (pitted morningglory, Ipomoea lacunosa), nutsedge, purple (purple nutsedge, Cyperus rotundus), ragweed (common ragweed, Ambrosia elation), mustard, black (black mustard, Brassica nigra), guineagrass (Panicum maximum), dallisgrass (Paspalum dilatatum), barnyardgrass (Echinochloa crus-galli), sandbur (southern sandbur, Cenchrus echinatus), sowthistle (common sowthistle, Sonchus oleraceous), ryegrass, Italian (Italian ryegrass, Lolium multiflorum), signalgrass (broadleaf signalgrass, Brachiaria platyphylla), dayflower, VA (Virginia (VA) dayflower, Commelina virginica), bluegrass (annual bluegrass, Poa annua), quackgrass (Elytrigia repens), mallow (common mallow, Malva sylvestris), buckwheat, wild (wild buckwheat, Polygonum convolvulus), leafy spurge (Euphorbia esula), common chickweed (Stellaria media), wild poinsettia (Euphorbia heterophylla), pigweed, palmer (palmer pigweed, Amaranthus palmeri), and pigweed (redroot pigweed, Amaranthus retroflexus) were planted into a blend of loam soil and sand and treated preemergence with test chemicals formulated in a non-phytotoxic solvent mixture which included a surfactant.
(§2) Treated plants and controls were maintained in a greenhouse for 21 days, after which time all species were compared to controls and visually evaluated. Plant response ratings, summarized in Table E, are based on a scale of 0 to 100 where 0 is no effect and 100 is complete control. A dash (-) response means no test result.

leafy spurge = assay: Test E preemergence; assay type: in vivo, Euphorbia esula; settings: 21 days, scale 0 to 100
Description: as §1, §2

wild poinsettia = assay: Test E preemergence; assay type: in vivo, Euphorbia heterophylla; settings: 21 days, scale 0 to 100
Description: as §1, §2

chamomile = assay: Test D preemergence; assay type: in vivo, Matricaria inodora; settings: scale 0 to 100
Description: Seeds of plant species selected from bluegrass (annual bluegrass, Poa annua), blackgrass (Alopecurus myosuroides), canarygrass (littleseed canarygrass, Phalaris minor), chickweed (common chickweed, Stellaria media), galium (catchweed bedstraw, Galium aparine), bromegrass, downy (downy bromegrass, Bromus tectorum), field poppy (Papaver rhoeas), field violet (Viola arvensis), foxtail, green (green foxtail, Setaria viridis), deadnettle (henbit deadnettle, Lamium amplexicaule), ryegrass, Italian (Italian ryegrass, Lolium multiflorum), kochia (Kochia scoparia), lambsquarters (Chenopodium album), oilseed rape (Brassica napus), pigweed (redroot pigweed, Amaranthus retroflexus), chamomile (scentless chamomile, Matricaria inodora), speedwell (bird's-eye speedwell, Veronica persica), barley, spring (spring barley, Hordeum vulgare), wheat, spring (spring wheat, Triticum aestivum), buckwheat, wild (wild buckwheat, Polygonum convolvulus), mustard, wild (wild mustard, Sinapis arvensis), oat, wild (wild oat, Avena fatua), radish, wild (wild radish, Raphanus raphanistrum), windgrass (Apera spica-venti), Russian thistle (Salsola kali), barley, winter (winter barley, Hordeum vulgare), and wheat, winter (winter wheat, Triticum aestivum) were planted into a silt loam soil and treated preemergence with test chemicals formulated in a non-phytotoxic solvent mixture which included a surfactant.
At the same time, these species were planted in pots containing Redi-Earth® planting medium (Scotts Company, 14111 Scottslawn Road, Marysville, Ohio 43041) comprising spaghnum peat moss, vermiculite, wetting agent and starter nutrients and treated with postemergence applications of the test chemicals formulated in the same manner. Plants ranged in height from 2 to 18 cm (1- to 4-leaf stage). Treated plants and controls were maintained in a controlled growth environment for 14 to 21 days after which time all species were compared to controls and visually evaluated. Plant response ratings, summarized in Table D, are based on a scale of 0 to 100 where 0 is no effect and 100 is complete control. A dash (-) response means no test result.

sedge, umbrella = assay: Test C flooded paddy test; assay type: in vivo, Cyperus difformis; settings: Flood
Outline: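 Test compounds are applied straight into paddy water held 3 cm above the soil surface, with that flood maintained for the whole test. After 13 to 15 days in the greenhouse, each species is scored visually relative to controls.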

[1] = 31 g ai/ha, scale 0 to 100 (0 no effect, 100 complete control)
[2] = 62 g ai/ha, scale 0 to 100 (0 no effect, 100 complete control)
[3] = 125 g ai/ha, scale 0 to 100 (0 no effect, 100 complete control)

Row | Compound | Plant response rating, Pigweed, Palmer (pigweed, palmer; Postemergence, 31 g ai/ha) | Plant response rating, Pigweed, Palmer (pigweed, palmer; Postemergence, 125 g ai/ha) | Plant response rating, Pigweed, Palmer (pigweed, palmer; Postemergence, 250 g ai/ha) | Plant response rating, Pigweed, Palmer (pigweed, palmer; postemergence, 62 g ai/ha) | Plant response rating, Pigweed, Palmer (pigweed, palmer; postemergence, 500 g ai/ha) | Plant response rating, Mallow (mallow; 16 g ai/ha) | Plant response rating, Mallow (mallow; 31 g ai/ha) | Plant response rating, Mallow (mallow; 62 g ai/ha) | Plant response rating, Mallow (mallow; 125 g ai/ha) | Plant response rating, Mallow (mallow; 250 g ai/ha) | Plant response rating, Leafy Spurge (leafy spurge; 16 g ai/ha) | Plant response rating, Leafy Spurge (leafy spurge; 31 g ai/ha) | Plant response rating, Leafy Spurge (leafy spurge; 62 g ai/ha) | Plant response rating, Leafy Spurge (leafy spurge; 125 g ai/ha) | Plant response rating, Leafy Spurge (leafy spurge; 250 g ai/ha) | Plant response rating, Wild Poinsettia (wild poinsettia; 16 g ai/ha) | Plant response rating, Wild Poinsettia (wild poinsettia; 31 g ai/ha) | Plant response rating, Wild Poinsettia (wild poinsettia; 62 g ai/ha) | Plant response rating, Sedge, Umbrella (sedge, umbrella; [1]) | Plant response rating, Sedge, Umbrella (sedge, umbrella; [2]) | also measured
1 | CCc1cc(C(=O)NCC(F)(F)F)nn1Cc1ccnc(C(F)(F)F)c1 [Compound 78, 5-ethyl-N-(2,2,2-trifluoroethyl)-1-[[(2-trifluoromethyl)-4-pyridinyl]methyl]-1H-pyrazole-3-carboxamide] | 50 | 70 | 90 | 60 | 98 | 100 | 100 | 100 | 100 | 100 | 80 | 100 | 100 | 100 | 100 | – | – | – | – | – | –
2 | CCc1cc(C(=O)NC(C)C)nn1Cc1ccnc(C(F)(F)F)c1 [Compound 103] | – | – | – | – | – | 95 | 98 | 98 | 100 | 100 | 75 | 95 | 100 | 100 | 100 | 80 | 95 | 100 | – | – | Plant response rating, Wild Poinsettia (wild poinsettia; 125 g ai/ha): 100; Plant response rating, Wild Poinsettia (wild poinsettia; 250 g ai/ha): 100
3 | CCOc1cc(C(=O)NCC(F)(F)F)nn1Cc1ccnc(C(F)(F)F)c1 [Compound 104] | 60 | 70 | 75 | 80 | 95 | 40 | 98 | 100 | 98 | 100 | 100 | 98 | 100 | 98 | 100 | 95 | 100 | 100 | – | – | Plant response rating, Wild Poinsettia (wild poinsettia; 125 g ai/ha): 100; Plant response rating, Wild Poinsettia (wild poinsettia; 250 g ai/ha): 100
4 | CCCc1cc(C(=O)NCC(F)(F)F)nn1Cc1ccnc(C(F)(F)F)c1 [Compound 105] | 30 | 60 | 75 | 25 | 80 | 100 | 100 | 100 | 100 | 100 | 100 | 100 | 100 | 100 | 100 | 50 | 80 | 100 | – | – | Plant response rating, Wild Poinsettia (wild poinsettia; 125 g ai/ha): 100; Plant response rating, Wild Poinsettia (wild poinsettia; 250 g ai/ha): 100
5 | CCCc1cc(C(=O)NCC(F)(F)F)nn1Cc1cc(C(F)(F)F)nn1C [Compound 138] | – | – | – | – | – | – | – | – | – | – | – | – | – | – | – | – | – | – | – | – | Plant response rating, Chamomile (chamomile; 31 g ai/ha): 0; Plant response rating, Chamomile (chamomile; 62 g ai/ha): 95; Plant response rating, Chamomile (chamomile; 125 g ai/ha): 100; Plant response rating, Chamomile (chamomile; 250 g ai/ha): 100
6 | CCCNC(=O)c1cc(CCCl)n(Cc2ccnc(C(F)(F)F)c2)n1 [Compound 145] | – | – | – | – | – | – | – | – | – | – | – | – | – | – | – | – | – | – | 100 | 100 | Plant response rating, Sedge, Umbrella (sedge, umbrella; 125 g ai/ha, scale 0 to 100): 100; Plant response rating, Sedge, Umbrella (sedge, umbrella; 250 g ai/ha, scale 0 to 100): 100
7 | CCOc1cc(C(=O)NC2CC2)nn1Cc1ccnc(C(F)(F)F)c1 [Compound 189] | – | – | – | – | – | 100 | 98 | 100 | – | – | 100 | 100 | 100 | – | – | 65 | 95 | 100 | – | – | Plant response rating, Mallow (mallow; 4 g ai/ha): 90; Plant response rating, Mallow (mallow; 8 g ai/ha): 65; Plant response rating, Chamomile (chamomile; 31 g ai/ha): 65; Plant response rating, Chamomile (chamomile; 62 g ai/ha): 100; Plant response rating, Chamomile (chamomile; 125 g ai/ha): 100; Plant response rating, Chamomile (chamomile; 250 g ai/ha): 100; Plant response rating, Leafy Spurge (leafy spurge; 4 g ai/ha): 35; Plant response rating, Leafy Spurge (leafy spurge; 8 g ai/ha): 75; Plant response rating, Wild Poinsettia (wild poinsettia; 4 g ai/ha): 10; Plant response rating, Wild Poinsettia (wild poinsettia; 8 g ai/ha): 25
8 | CCONC(=O)c1cc(OCC)n(Cc2ccnc(C(F)(F)F)c2)n1 [Compound 195] | – | – | – | – | – | – | – | – | – | – | – | – | – | – | – | – | – | – | 0 | 75 | Plant response rating, Sedge, Umbrella (sedge, umbrella; [3]): 80; Plant response rating, Sedge, Umbrella (sedge, umbrella; 250 g ai/ha, scale 0 to 100): 85
9 | CCc1cc(C(=O)NC2CC2)nn1Cc1ccnc(OCC(F)(F)F)c1 [Compound 200] | – | – | – | – | – | – | – | – | – | – | – | – | – | – | – | – | – | – | 50 | 80 | Plant response rating, Sedge, Umbrella (sedge, umbrella; [3]): 100; Plant response rating, Sedge, Umbrella (sedge, umbrella; 250 g ai/ha, scale 0 to 100): 100
10 | CCc1cc(C(=O)NC2CC2)nn1Cc1cc(C(F)(F)C(F)(F)F)nn1C [Compound 226] | – | – | – | – | – | – | – | – | – | – | – | – | – | – | – | – | – | – | 20 | 25 | Plant response rating, Sedge, Umbrella (sedge, umbrella; [3]): 85
